Literature values in patent publication US20060193824A1, “Methods for the treatment of infectious and inflammatory airway diseases” (priority 2005, published 2006).

Experiments:
[1] = test system: normal pancreatic cell lines; conditions: extracellular ATP
human airways [2] = test system: human airways
[3] = test system: respiratory epithelial cells
human airways [4] = test system: human airways; remark: listed apart in the source

Question: For “Epidermal growth factor: Epidermal growth factor, EGF, which can be obtained from Sigma (NSDSECPLSHDGYCLHDGVCMYIEALDKYACNCVVGYIGERCQYRDLKWWELR; Epidermal growth factor; UniProt P01133 971-1023, looked up)”, which mucin production (mucin production) is on record?
Answer: effective to stimulate mucin production

Question: For `Nc1ncnc2c1ncn2[C@@H]1O[C@H](COP(=O)(O)OP(=O)(O)OP(=O)(O)O)[C@@H](O)[C@H]1O` [ATP], which mucin protein secretion [1] is on record?
Answer: rapidly increased mucin protein secretion

Question: Which mucin secretion (mucin secretion) does the source give for `CC(=O)OC(C)C[N+](C)(C)C` (centres unmarked) [methacholine] here?
Answer: effective to stimulate mucin secretion

Question: Which mucous glycoprotein release (human airways [2]) does the source give for `NCCc1c[nH]cn1` [Histamine] here?
Answer: stimulates mucous glycoprotein release

Question: Which MUC5AC release [3] does the source give for Tumor necrosis factor alpha here?
Answer: stimulate MUC5AC release

Question: With `CCCCC/C=C\C/C=C\C/C=C\C/C=C\CCCC(=O)O` [Arachidonic acid] as the molecule, how does the mucin release (human airways [4]) read?
Answer: release mucin from human airways

Question: With `CC(=O)N[C@H]1C(O)O[C@H](CO)[C@@H](O)[C@@H]1O` (some centres unmarked) [N-acetyl-glucosamine] as the molecule, how does the mucin release (GI tract) read?
Answer: stimulate mucin release in the GI tract

Question: For `O=C(O)CNC(=O)C(CS)Cc1ccccc1` (centres unmarked) [Thiorphan], which mucin release (mucin release) is on record?
Answer: stimulate mucin release

Question: For `CC(C[N+](C)(C)C)OC(N)=O` (centres unmarked) [bethanechol], which mucin secretion (mucin secretion) is on record?
Answer: effective to stimulate mucin secretion

Question: Which mucin release (mucin release) does the source give for `CC(C)C[C@H](NC(=O)C(CS)Cc1ccccc1)C(=O)O` (some centres unmarked) [leucine-thiorphan] here?
Answer: stimulate mucin release

Question: Which mucin secretion (ferret trachea) does the source give for `FC(F)(F)C(F)(F)C(F)(F)C(F)(F)C(F)(F)C(F)(F)C(F)(F)C(F)(F)Br` [perflubron, perfluorooctyl bromide] here?
Answer: stimulates mucin secretion

Question: Which mucin release (mucin release) does the source give for `CC(C)C[C@H](NP(=O)(O)O[C@@H]1O[C@@H](C)[C@H](O)[C@@H](O)[C@H]1O)C(=O)N[C@@H](Cc1c[nH]c2ccccc12)C(=O)O` [phosphoramidon] here?
Answer: stimulate mucin release

Question: For `C[N+](C)(C)CCOC(N)=O` [carbachol], which mucin secretion (mucin secretion) is on record?
Answer: effective to stimulate mucin secretion

Question: For Interleukin 1, which mucus secretagogue activity (mucus secretion) is on record?
Answer: mucus secretagogue
